# Data from PubChem BioAssay (NCI).
#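 Results reflect a 48-hour exposure of cells in 96-well plates to compound at five concentrations. GI50 marks 50% less growth. At the TGI there is no net growth.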
# Tests used:
# Test in all cases: growth of human tumour cells (NCI), 48 h
# [1] = system: LOX IMVI melanoma
# [2] = system: RPMI-8226 leukemia
# [3] = system: NCI-H460 lung
# [4] = system: OVCAR-8 ovarian
# [5] = system: HT29 colon
# [6] = system: OVCAR-4 ovarian
# [7] = system: MDA-MB-468 breast
# [8] = system: SW-620 colon
# [9] = system: MDA-MB-435
# [10] = system: UACC-62 melanoma
# [11] = system: SF-268 CNS
# [12] = system: 786-0 renal
# [13] = system: HL-60(TB) leukemia
# [14] = system: NCI-H226 lung
# [15] = system: HCT-15 colon
# [16] = system: A549 NSCLC
# [17] = system: EKVX NSCLC
# [18] = system: CAKI-1 renal
# [19] = system: KM12 colon
# [20] = system: OVCAR-3 ovarian
# [21] = system: A498 renal
# [22] = system: BT-549 breast
# [23] = system: HOP-92 NSCLC
# [24] = system: MALME-3M melanoma
# [25] = system: CCRF-CEM leukemia
# [26] = system: SNB-19 CNS
# [27] = system: M14 melanoma
# [28] = system: SF-539 CNS
# [29] = system: SN12C renal
# [30] = system: OVCAR-5 ovarian
# [31] = system: NCI/ADR-RES ovarian
# [32] = system: SK-OV-3 ovarian
# [33] = system: HCT-116 colon
# [34] = system: ACHN renal
# [35] = system: COLO 205 colon
# [36] = system: SK-MEL-5 melanoma
# [37] = system: TK-10 renal
# [38] = system: T-47D breast
# [39] = system: MOLT-4 leukemia
# [40] = system: UACC-257 melanoma
# [41] = system: SR leukemia
# [42] = system: U251 CNS
# [43] = system: NCI-H23 lung
# [44] = system: MCF7 breast
# [45] = system: IGROV1 ovarian
# [46] = system: RXF 393 renal
# [47] = system: PC-3 prostate
# [48] = system: HCC-2998 colon
# [49] = system: HOP-62 NSCLC
# [50] = system: DU-145 prostate
# [51] = system: NCI-H522 lung
# [52] = system: HS 578T breast
# [53] = system: SK-MEL-28 melanoma
# [54] = system: SF-295 CNS
# [55] = system: K-562 leukemia
# [56] = system: UO-31 renal
# [57] = system: MDA-MB-231 breast
# [58] = system: SNB-75 CNS
# [59] = system: SK-MEL-2 melanoma
compound,measurement,setting,value
O=C(Nc1nc2ccc([N+](=O)[O-])cc2s1)Nc1ccccc1I,GI50,[1],3.67 µM
same,TGI,[1],15.1 µM
same,GI50,[2],2.08 µM
same,TGI,[2],5.74 µM
same,GI50,[3],3.55 µM
same,TGI,[3],16.4 µM
same,GI50,[4],4.58 µM
same,TGI,[4],20.6 µM
same,GI50,[5],5.76 µM
same,TGI,[5],20 µM
same,GI50,[6],3.94 µM
same,TGI,[6],> 100 µM
same,GI50,[7],2.41 µM
same,TGI,[7],7.79 µM
same,GI50,[8],4.35 µM
same,TGI,[8],31.7 µM
same,GI50,[9],3.78 µM
same,TGI,[9],> 100 µM
same,GI50,[10],3.31 µM
same,TGI,[10],37.1 µM
same,GI50,[11],3.78 µM
same,TGI,[11],> 100 µM
same,GI50,[12],3.61 µM
same,TGI,[12],32.1 µM
same,GI50,[13],2.15 µM
same,TGI,[13],7.92 µM
same,GI50,[14],3.77 µM
same,TGI,[14],19.4 µM
same,GI50,[15],3.4 µM
same,TGI,[15],14.6 µM
same,GI50,[16],3.81 µM
same,TGI,[16],19.2 µM
same,GI50,[17],3.05 µM
same,TGI,[17],12.3 µM
same,GI50,[18],3.46 µM
same,TGI,[18],> 100 µM
same,GI50,[19],3.82 µM
same,TGI,[19],> 100 µM
same,GI50,[20],3.11 µM
same,TGI,[20],10.7 µM
same,GI50,[21],2.57 µM
same,TGI,[21],8.12 µM
same,GI50,[22],2.86 µM
same,TGI,[22],10.5 µM
same,GI50,[23],2.3 µM
same,TGI,[23],6.95 µM
same,GI50,[24],2.37 µM
same,TGI,[24],8.4 µM
same,GI50,[25],3.57 µM
same,TGI,[25],52 µM
same,GI50,[26],3.32 µM
same,TGI,[26],19 µM
same,GI50,[27],4.28 µM
same,TGI,[27],89.8 µM
same,GI50,[28],3.45 µM
same,TGI,[28],12.9 µM
same,GI50,[29],3.1 µM
same,TGI,[29],12.2 µM
same,GI50,[30],9.78 µM
same,TGI,[30],86.6 µM
same,GI50,[31],3.12 µM
same,TGI,[31],11.8 µM
same,GI50,[32],2.67 µM
same,TGI,[32],9.38 µM
same,GI50,[33],3.46 µM
same,TGI,[33],12.6 µM
same,GI50,[34],3.58 µM
same,TGI,[34],15.6 µM
same,GI50,[35],4.89 µM
same,TGI,[35],20 µM
same,GI50,[36],1.86 µM
same,TGI,[36],3.86 µM
same,GI50,[37],3.43 µM
same,TGI,[37],24.3 µM
same,GI50,[38],2.57 µM
same,TGI,[38],8.98 µM
same,GI50,[39],2.92 µM
same,TGI,[39],8.41 µM
same,GI50,[40],3.17 µM
same,TGI,[40],16 µM
same,GI50,[41],2.06 µM
same,TGI,[41],5.03 µM
same,GI50,[42],3.3 µM
same,TGI,[42],12.7 µM
same,GI50,[43],2.76 µM
same,TGI,[43],8.15 µM
same,GI50,[44],2.91 µM
same,TGI,[44],11 µM
same,GI50,[45],3.97 µM
same,TGI,[45],> 100 µM
same,GI50,[46],4.18 µM
same,TGI,[46],24.2 µM
same,GI50,[47],3.43 µM
same,TGI,[47],84.2 µM
same,GI50,[48],4.12 µM
same,TGI,[48],23.4 µM
same,GI50,[49],6.16 µM
same,TGI,[49],21.4 µM
same,GI50,[50],4.25 µM
same,TGI,[50],> 100 µM
same,GI50,[51],2.73 µM
same,TGI,[51],9.1 µM
same,GI50,[52],3.23 µM
same,TGI,[52],> 100 µM
same,GI50,[53],3.4 µM
same,TGI,[53],39 µM
same,GI50,[54],3.34 µM
same,TGI,[54],14.8 µM
same,GI50,[55],3.23 µM
same,TGI,[55],13.9 µM
CN1CCN(c2ccc(Nc3nc(N4CCN(S(=O)(=O)c5ccc(Cl)cc5)CC4)c4sccc4n3)cc2)CC1,GI50,[2],2.89 µM
same,TGI,[2],6.13 µM
same,GI50,[3],1.93 µM
same,TGI,[3],3.69 µM
same,GI50,[6],14.9 µM
same,TGI,[6],38.7 µM
same,GI50,[7],1.64 µM
same,TGI,[7],3.14 µM
same,GI50,[9],1.76 µM
same,TGI,[9],3.31 µM
same,GI50,[10],1.71 µM
same,TGI,[10],3.25 µM
same,GI50,[11],13.5 µM
same,TGI,[11],39 µM
same,GI50,[13],2.1 µM
same,TGI,[13],4.47 µM
same,GI50,[14],18.7 µM
same,TGI,[14],55.5 µM
same,GI50,[16],4.35 µM
same,TGI,[16],24.9 µM
same,GI50,[17],22 µM
same,TGI,[17],59.8 µM
same,GI50,[18],11.6 µM
same,TGI,[18],27.8 µM
same,GI50,[19],4.85 µM
same,TGI,[19],20 µM
same,GI50,[20],2.85 µM
same,TGI,[20],7.42 µM
same,GI50,[21],17.5 µM
same,TGI,[21],31.6 µM
same,GI50,[22],20.8 µM
same,TGI,[22],58.7 µM
same,GI50,[23],10.7 µM
same,TGI,[23],28.7 µM
same,GI50,[24],1.64 µM
same,TGI,[24],3.03 µM
same,GI50,[25],4.47 µM
same,TGI,[25],32.6 µM
same,GI50,[26],3.69 µM
same,TGI,[26],17.1 µM
same,GI50,[27],1.85 µM
same,TGI,[27],3.62 µM
same,GI50,[28],1.69 µM
same,TGI,[28],3.16 µM
same,GI50,[56],13.7 µM
same,TGI,[56],29.6 µM
same,GI50,[29],13.7 µM
same,TGI,[29],34.7 µM
same,GI50,[30],15.6 µM
same,TGI,[30],39.5 µM
same,GI50,[31],10.9 µM
same,TGI,[31],39.7 µM
same,GI50,[32],26.8 µM
same,TGI,[32],69.2 µM
same,GI50,[34],3.03 µM
same,TGI,[34],11.4 µM
same,GI50,[35],2.67 µM
same,TGI,[35],7.54 µM
same,GI50,[37],6.47 µM
same,TGI,[37],21.6 µM
same,GI50,[38],7.17 µM
same,TGI,[38],35.9 µM
same,GI50,[39],2.21 µM
same,TGI,[39],5.78 µM
same,GI50,[41],1.92 µM
same,TGI,[41],4.82 µM
same,GI50,[57],1.71 µM
same,TGI,[57],3.27 µM
same,GI50,[58],9.97 µM
same,TGI,[58],24.3 µM
same,GI50,[43],19.1 µM
same,TGI,[43],66.3 µM
same,GI50,[45],14.5 µM
same,TGI,[45],44.8 µM
same,GI50,[46],1.91 µM
same,TGI,[46],3.68 µM
same,GI50,[47],4.01 µM
same,TGI,[47],> 100 µM
same,GI50,[48],2.64 µM
same,TGI,[48],6.18 µM
same,GI50,[49],28.9 µM
same,TGI,[49],88.8 µM
same,GI50,[59],19.4 µM
same,TGI,[59],40.1 µM
same,GI50,[50],3.36 µM
same,TGI,[50],10.8 µM
same,GI50,[52],13.1 µM
same,TGI,[52],46.7 µM
same,GI50,[53],1.73 µM
same,TGI,[53],3.36 µM
same,GI50,[55],2.16 µM
same,TGI,[55],6.04 µM
